Marks after values point to notes of the source that are not given here. Ends that are not written are not given here.
Key:
[1] = tested on: peripheral CD4 lymphocyte counts; experiment: Same study: change in peripheral CD4 lymphocyte counts from baseline (flow cytometry); type: in vivo, patients
Experimental: (§1) Patients with chronic hepatitis C who were non-responders to previous antiviral therapy were randomized to receive PEG-IFN2a 180 μg/week plus thymalfasin given twice a week by subcutaneous injection (Group 1, 0.8 mg; Group 2, 1.6 mg; Group 3, 3.2 mg). In order to assess effect of thymalfasin on PEG-IFN2a, patients were included only if they were infected with HCV genotype 1 and had serum HCV RNA levels greater than 2 million copies per ml. The effect of therapy was assessed on the reduction in serum HCV RNA after 12 weeks, early virologic response (EVR, proportion which greater than 2 log reduction or negative HCV RNA by the Roche Amplicor assay) and on changes in peripheral CD3 and CD4 lymphocyte counts from baseline (assessed by flow cytometry).

HCV genotype 1 = experiment: 12-week dose ranging study of thymalfasin plus PEG-IFN2a in chronic hepatitis C non-responders: serum HCV RNA, EVR; type: in vivo, patients; conditions: for Median Reduction HCV RNA (log): week 12
Experimental: The effects of 3 different doses of thymalfasin (TA1) in combination with PEG-IFN2a on week 12 HCV RNA levels and T cell counts was investigated.
as §1
31 patients (26 male) with median age 47 yrs (range 39–58) were enrolled. Four were non-responders to a previous course of standard IFN alone while 27 had previously non responded to standard IFN with ribavirin. All subjects completed 12 weeks of therapy. Six (19%) became negative for HCV RNA on therapy. […] The median reduction in HCV RNA increased with dose with thymosin (Table B).
Patients were randomized into three groups to receive 180 mcg/week of pegylated interferon alpha-2a plus one of three different bi-weekly doses of TA1.

[2] = tested on: peripheral CD3 lymphocyte counts; experiment: Same study: change in peripheral CD3 lymphocyte counts from baseline (flow cytometry); type: in vivo, patients
Experimental: as §1

HCV genotype-1a = experiment: Case report, person with hepatitis C: HCV RNA levels; type: in vivo, patient
Experimental: Then it was decided to start PEG Intron at ⅕ mc/kg/w, ribavirin at 12 mg/kg/day and thymosin-alpha-1 at 3.2 mcg BIW SQ, as a second course of treatment.

[3] = in vivo
From the text: Patients will be monitored for significant side-effects or allergic manifestations possibly resulting from treatment. […] Patients will be educated on the symptoms of severe anaphylactic reactions and informed of appropriate countermeasures.

[4] = Group 1: 0.8 mg biw + PEG-IFN2a 180 μg/week
[5] = Group 2: 1.6 mg biw + PEG-IFN2a 180 μg/week
[6] = Group 3: 3.2 mg biw + PEG-IFN2a 180 μg/week

## thymalfasin: 28 amino acidic polypeptide with a molecular weight of 3100 that has potent immunologic activity; synthetic Tα1 by SciClone (Ac-SDAAVDTSSEITTKDLKEKKEVVEEAEN; UniProt P06454 2-29, looked up)
[1]; [4]
  CD4+ change from baseline: −0.2%
[1]; [5]
  CD4+ change from baseline: +14.8%
[1]; [6]
  CD4+ change from baseline: +8.8%
HCV genotype 1; Group 1: 0.8 mg biw + PEG-IFN2a 180 μg/week, 12 weeks, listed as T1
  EVR, early virologic response (greater than 2 log reduction or negative HCV RNA): 20%
HCV genotype 1; Group 1: 0.8 mg biw + PEG-IFN2a 180 μg/week, 12 weeks, listed as TA1
  EVR, early virologic response (greater than 2 log reduction or negative HCV RNA): 20%
HCV genotype 1; Group 1: T1 0.8 mg biw sc + PEG-IFN2a 180 μg/week, n=10
  Median Reduction HCV RNA (log): 0.57 log
HCV genotype 1; Group 2: 1.6 mg biw + PEG-IFN2a 180 μg/week, 12 weeks, listed as T1
  EVR, early virologic response (greater than 2 log reduction or negative HCV RNA): 30%
HCV genotype 1; Group 2: 1.6 mg biw + PEG-IFN2a 180 μg/week, 12 weeks, listed as TA1
  EVR, early virologic response (greater than 2 log reduction or negative HCV RNA): 30%
HCV genotype 1; Group 2: T1 1.6 mg biw sc + PEG-IFN2a 180 μg/week, n=10, p < 0.01 vs group 1
  Median Reduction HCV RNA (log): 0.97* log
HCV genotype 1; Group 3: 3.2 mg biw + PEG-IFN2a 180 μg/week, 12 weeks, listed as T1
  EVR, early virologic response (greater than 2 log reduction or negative HCV RNA): 36%
HCV genotype 1; Group 3: 3.2 mg biw + PEG-IFN2a 180 μg/week, 12 weeks, listed as TA1
  EVR, early virologic response (greater than 2 log reduction or negative HCV RNA): 36%
HCV genotype 1; Group 3: T1 3.2 mg biw sc + PEG-IFN2a 180 μg/week, n=11, p < 0.005 vs group 1
  Median Reduction HCV RNA (log): 1.09** log
HCV genotype 1; all 31 patients, all three dose groups, with PEG-IFN2a, 12 weeks
  Patients who became negative for HCV RNA on therapy: 19%
[2]; [4]
  CD3+ change from baseline: 0%
[2]; [5]
  CD3+ change from baseline: +8.3%
[2]; [6]
  CD3+ change from baseline: +7.5%
HCV genotype-1a; 1 and 3 months after stopping 12 months of PEG Intron + ribavirin + thymosin-alpha-1
  HCV RNA by TMA: negative
HCV genotype-1a; PEG Intron ⅕ mc/kg/w + ribavirin 12 mg/kg/day + thymosin-alpha-1 3.2 mcg BIW SQ, month 1, 3, 6 and 12
  HCV RNA blood levels by TMA: less than 5 IU/mL
[3]
  local or systemic side effects: no local or systemic side effects have been observed

Source: patent US7208167B2, “Treatment of hepatitis C with thymosin and peptide combination therapy” (SciClone Pharmaceuticals, Inc., priority 2000, dated 2007)
